In patent US20240101542A1, “ERAP INHIBITORS” (UNIVERSITE DE LILLE, priority 2020, published 2024):

Experiments:
ERAP2 = ERAP2 (Homo sapiens (Human), UniProt Q6P179); test: In vitro ERAP activity assay, ERAP2 with R-AMC substrate; assay type: biochemical; design: IC50 on ERAP2 using R-AMC as substrate: scale not given here; conditions: for IC50 / IC50 on ERAP2 using R-AMC as substrate: R-AMC as substrate; for IC50: read-out: IC50 on ERAP2 using R-AMC as substrate
Method: (§1) The enzymatic activity of ERAP1 or 2 was assayed using L-AMC (L-Leucine-7-amido-4-methylcoumarin hydrochloride) or R-AMC (L-Arginine-7-amido-4-methylcoumarin hydrochloride) respectively. Hepes at 50 mM with 100 mM NaCl at pH 7 was used as buffer. Briefly, 60 nL of test compounds were added in 384-wells plates (dark, non-binding surface) by acoustic dispensing with nanoacoustic dispenser Echo (Labcyte) and pre-incubated 30 minutes at ambient temperature with 10 μL of ERAP 0.8 μg/mL or 1 μg/mL or vehicle. The reaction was then started with the addition of 10 μL of substrate at 10 μM. The final concentration of ERAP, substrate and DMSO was 0.5 μg/mL, 5 μM and 0.4% respectively. For the kinetic readout a Victor 3V (Perkin-Elmer) was used with excitation at 380 nm and emission at 450 nm. The fluorescence was measured each 3 minutes during one hour.
(§2) The Z and Z′ factors were calculated according to J.-H. Zhang, T. D. Y. Chung, K. R. Oldenburg, A Simple Statistical Parameter for Use in Evaluation and Validation of High Throughput Screening Assays, J. Biomol. Screen., 4 (1999) 67-73. Data analysis was performed using Xlfit® v 5.0 or GraphPad Prism® v 4.0.
(§3) Percentages of inhibition at different concentrations were obtained as described above and IC50s were carried out as 8-point dose response curves and reported as the average of at least three independent measurements. […] Data analysis was performed using Xlfit® v 5.0 or GraphPad Prism® v 4.0. Nonlinear curve fitting and statistical analysis was done using built-in functions.

ERAP1 = ERAP1 (Homo sapiens (Human), UniProt Q9NZ08); test: In vitro ERAP activity assay, ERAP1 with L-AMC substrate; assay type: biochemical; conditions: L-AMC as substrate; read-out: IC50 on ERAP1 or ERAAP using L-AMC as substrate
Method: as §1, §2, §3

Sequence of ERAP2 (Q6P179 whole entry): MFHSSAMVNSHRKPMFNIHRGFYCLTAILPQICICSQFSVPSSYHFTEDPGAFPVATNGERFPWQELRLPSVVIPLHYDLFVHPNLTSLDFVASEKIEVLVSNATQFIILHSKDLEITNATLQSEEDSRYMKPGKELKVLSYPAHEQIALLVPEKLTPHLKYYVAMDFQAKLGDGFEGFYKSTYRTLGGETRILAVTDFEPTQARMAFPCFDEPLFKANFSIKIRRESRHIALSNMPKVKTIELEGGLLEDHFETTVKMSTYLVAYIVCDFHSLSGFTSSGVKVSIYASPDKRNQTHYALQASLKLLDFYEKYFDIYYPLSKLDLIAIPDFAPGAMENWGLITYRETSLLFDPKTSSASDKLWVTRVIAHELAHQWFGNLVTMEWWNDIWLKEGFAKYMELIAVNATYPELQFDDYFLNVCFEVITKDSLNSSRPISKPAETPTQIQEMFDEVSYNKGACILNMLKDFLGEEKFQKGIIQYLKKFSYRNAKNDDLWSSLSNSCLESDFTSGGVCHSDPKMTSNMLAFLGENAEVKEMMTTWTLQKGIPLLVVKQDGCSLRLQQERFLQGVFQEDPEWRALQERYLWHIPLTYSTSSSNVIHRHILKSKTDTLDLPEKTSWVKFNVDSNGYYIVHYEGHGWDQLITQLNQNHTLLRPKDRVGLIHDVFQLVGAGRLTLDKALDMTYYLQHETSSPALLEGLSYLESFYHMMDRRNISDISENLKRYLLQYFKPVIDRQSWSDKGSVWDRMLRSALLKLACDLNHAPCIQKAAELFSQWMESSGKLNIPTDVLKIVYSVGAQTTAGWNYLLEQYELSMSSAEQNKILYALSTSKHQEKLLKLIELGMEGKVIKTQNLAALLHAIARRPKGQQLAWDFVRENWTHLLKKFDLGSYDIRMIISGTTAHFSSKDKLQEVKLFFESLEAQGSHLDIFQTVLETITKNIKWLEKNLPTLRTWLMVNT
Sequence of ERAP1 (Q9NZ08 whole entry): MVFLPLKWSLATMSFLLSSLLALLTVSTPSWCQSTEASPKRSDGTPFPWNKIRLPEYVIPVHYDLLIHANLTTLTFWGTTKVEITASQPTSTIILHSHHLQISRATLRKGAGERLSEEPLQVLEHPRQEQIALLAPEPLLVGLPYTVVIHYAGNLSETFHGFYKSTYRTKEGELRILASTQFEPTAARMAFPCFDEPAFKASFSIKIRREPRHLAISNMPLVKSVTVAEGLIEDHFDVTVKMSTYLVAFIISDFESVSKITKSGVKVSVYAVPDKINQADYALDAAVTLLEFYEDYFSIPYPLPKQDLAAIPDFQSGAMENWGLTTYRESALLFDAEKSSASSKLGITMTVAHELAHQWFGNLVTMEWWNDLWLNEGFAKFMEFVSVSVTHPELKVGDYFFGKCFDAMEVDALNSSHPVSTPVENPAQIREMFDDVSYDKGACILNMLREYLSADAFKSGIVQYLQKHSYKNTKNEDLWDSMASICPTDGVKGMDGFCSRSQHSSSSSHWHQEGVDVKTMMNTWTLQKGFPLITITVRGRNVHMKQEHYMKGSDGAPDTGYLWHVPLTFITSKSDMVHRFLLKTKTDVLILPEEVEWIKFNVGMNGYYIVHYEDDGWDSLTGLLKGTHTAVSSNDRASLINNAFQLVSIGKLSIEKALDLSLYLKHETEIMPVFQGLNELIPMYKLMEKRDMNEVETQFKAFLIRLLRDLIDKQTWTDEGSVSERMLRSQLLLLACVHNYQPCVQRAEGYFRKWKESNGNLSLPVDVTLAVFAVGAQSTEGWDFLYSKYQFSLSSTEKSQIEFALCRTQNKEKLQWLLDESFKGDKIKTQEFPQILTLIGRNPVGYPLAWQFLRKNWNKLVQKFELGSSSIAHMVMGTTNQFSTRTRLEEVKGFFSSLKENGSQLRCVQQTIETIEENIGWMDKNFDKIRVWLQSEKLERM

Compound | inhibition at 2000 µM (ERAP2; at 2 mM, ERAP1 or 2 activity assay, read-out: inhibition (reference inhibitor)) [%] | IC50 (ERAP2) [µM] | IC50 (ERAP1) [µM] | IC50 on ERAP2 using R-AMC as substrate (ERAP2)
O=C(C[C@@H](Cc1c[nH]c2ccccc12)n1cc(CNS(=O)(=O)c2ccc(-c3ccccc3)s2)nn1)NO [Compound 1] |  | > 5 |  | 
O=C(NO)[C@@H](Cc1c[nH]c2ccccc12)n1cc(CNS(=O)(=O)c2ccc(-c3ccccc3)s2)nn1 [Compound 2] |  | > 5 | > 5 | 
CN(Cc1cn([C@@H](Cc2c[nH]c3ccccc23)C(=O)NO)nn1)S(=O)(=O)c1ccc(-c2ccccc2)s1 [Compound 3] |  |  | > 5 | + +
O=C(NO)[C@H](Cc1c[nH]c2ccccc12)n1cc(CNS(=O)(=O)c2ccc(-c3ccccc3)s2)nn1 [Compound 4] |  | > 5 | > 5 | 
O=C(C[C@@H](Cc1ccc2ccccc2c1)n1cc(CNS(=O)(=O)c2ccc(-c3ccccc3)s2)nn1)NO [Compound 6] |  |  | > 5 | + +
O=C(C[C@H](Cc1ccc(O)cc1)n1cc(CNS(=O)(=O)c2ccc(-c3ccccc3)s2)nn1)NO [Compound 7] |  |  |  | + +
O=C(NO)[C@@H](Cc1ccc(O)cc1)n1cc(CNS(=O)(=O)c2ccc(-c3ccccc3)s2)nn1 [Compound 8] |  |  | > 5 | + +
O=C(NO)[C@H](Cc1ccc(O)cc1)n1cc(CNS(=O)(=O)c2ccc(-c3ccccc3)s2)nn1 [Compound 10] |  |  | > 5 | + +
CNC(=O)c1ccc(-c2ccc(S(=O)(=O)NCc3cn([C@@H](Cc4ccc(O)cc4)C(=O)NO)nn3)s2)cc1 [Compound 11] |  |  |  | + +
NCc1ccc(-c2ccc(S(=O)(=O)NCc3cn([C@@H](Cc4ccc(O)cc4)C(=O)NO)nn3)s2)cc1 [Compound 12] |  |  | > 5 | + +
CN(Cc1cn([C@@H](Cc2ccc(O)cc2)C(=O)NO)nn1)S(=O)(=O)c1ccc(-c2ccccc2)s1 [Compound 13] |  |  | > 5 | + +
O=C(NO)[C@H](Cc1ccc(O)cc1)n1cc(CNS(=O)(=O)c2ccc(Br)s2)nn1 [Compound 14] |  |  | > 5 | + +
O=C(NO)[C@H](Cc1ccc(O)cc1)n1cc(CNS(=O)(=O)c2cccs2)nn1 [Compound 15] |  |  | > 5 | + +
Cc1ccc(S(=O)(=O)NCc2cn([C@@H](Cc3ccc(O)cc3)C(=O)NO)nn2)s1 [Compound 16] |  |  |  | + +
O=C(NO)[C@H](Cc1ccc(O)cc1)n1cc(CNS(=O)(=O)c2ccsc2)nn1 [Compound 17] |  |  | > 5 | + +
O=C(NO)[C@H](Cc1ccc(O)cc1)n1cc(CNS(=O)(=O)c2ccc(-c3ccccn3)s2)nn1 [Compound 19] |  |  | > 5 | + +
O=C(NO)[C@@H](Cc1ccc(O)cc1)n1cc(CNS(=O)(=O)c2ccc(-c3ccccn3)s2)nn1 [Compound 20] |  |  | > 5 | + +
O=C(NO)[C@H](Cc1ccc(OC(F)(F)F)cc1)n1cc(CNS(=O)(=O)c2ccc(-c3ccccn3)s2)nn1 [Compound 21] |  | < 0.5 |  | 
O=C(NO)[C@H](Cc1ccc(OC(F)(F)F)cc1)n1cc(CNS(=O)(=O)c2ccc(-c3ccccc3)s2)nn1 [Compound 22] |  | < 0.5 |  | 
CC(C)(C)Oc1ccc(C[C@@H](C(=O)NO)n2cc(CNS(=O)(=O)c3ccc(-c4ccccc4)s3)nn2)cc1 [Compound 26] |  | < 0.5 |  | 
CC(C)(C)Oc1ccc(C[C@@H](C(=O)NO)n2cc(CNS(=O)(=O)c3ccc(-c4ccccn4)s3)nn2)cc1 [Compound 27] |  | < 0.5 |  | 
CNC(=O)c1ccc(-c2ccc(S(=O)(=O)NCc3cn([C@@H](Cc4ccc(OC)cc4)C(=O)NO)nn3)s2)cc1 [Compound 28] |  | < 0.5 | < 5 | 
O=C(NO)[C@H](Cc1ccc(O)cc1)n1cc(CNS(=O)(=O)c2ccc(-c3cccnc3)s2)nn1 [Compound 29] |  | < 0.5 |  | 
O=C(C[C@H](Cc1ccc(O)cc1)n1nncc1CNS(=O)(=O)c1ccc(-c2ccccc2)s1)NO [Compound 31] |  |  |  | + +
O=C(NO)[C@@H](Cc1ccc(O)cc1)n1nncc1CNS(=O)(=O)c1ccc(-c2ccccc2)s1 [Compound 35] |  | > 5 |  | 
O=C(NO)[C@H](Cc1ccc2c(c1)OCO2)n1cc(CNS(=O)(=O)c2ccc(-c3ccccn3)s2)nn1 [Compound 37] |  | < 0.5 | > 5 | 
COc1ccc(C[C@@H](C(=O)NO)n2cc(CNS(=O)(=O)c3ccc(-c4cccnc4)s3)nn2)cc1 [Compound 38] |  | < 0.5 |  | 
O=C(NO)[C@H](Cc1ccc(O)c(Cl)c1)n1cc(CNS(=O)(=O)c2ccc(-c3ccccn3)s2)nn1 [Compound 39] |  | < 0.5 | < 5 | 
O=C(NO)[C@H](Cc1ccc(O)c(Cl)c1)n1cc(CNS(=O)(=O)c2ccc(-c3ccccc3)s2)nn1 [Compound 40] |  | < 0.5 | > 5 | 
COc1ccc(C[C@@H](C(=O)NO)n2cc([C@@H](C)NS(=O)(=O)c3ccc(-c4ccccn4)s3)nn2)cc1 [Compound 48] |  | < 5 |  | 

Further lines, results first:

inhibition at 2000 µM (ERAP2; at 2 mM, ERAP1 or 2 activity assay, read-out: inhibition (reference inhibitor)) [%] | IC50 (ERAP2) [µM] | IC50 (ERAP1) [µM] | IC50 on ERAP2 using R-AMC as substrate (ERAP2) | Compound
100 |  |  |  | CC(C)C[C@H](NC(=O)[C@@H](O)[C@H](N)Cc1ccccc1)C(=O)O [Bestatin, reference compound]
 |  | > 5 | + + | O=C(NO)[C@H](Cc1c[nH]c2ccccc12)n1cc(CNS(=O)(=O)c2ccc(Br)s2)nn1 [Compound 5]
 | > 5 |  |  | CN(Cc1cn([C@H](CC(=O)NO)Cc2ccc(O)cc2)nn1)S(=O)(=O)c1ccc(-c2ccccc2)s1 [Compound 9]
 |  |  | + + | O=C(NO)[C@H](Cc1ccc(O)cc1)n1cc(CNS(=O)(=O)c2sccc2Br)nn1 [Compound 18]
 |  | > 5 |  | COc1ccc(C[C@@H](C(=O)NO)n2cc(CNS(=O)(=O)c3ccc(-c4ccccc4)s3)nn2)cc1 [Compound 24]
 | > 5 |  |  | O=C(C[C@@H](Cc1c[nH]c2ccccc12)n1nncc1CNS(=O)(=O)c1ccc(-c2ccccc2)s1)NO [Compound 30]
 |  |  | + + | CN(Cc1cnnn1[C@H](CC(=O)NO)Cc1ccc(O)cc1)S(=O)(=O)c1ccc(-c2ccccc2)s1 [Compound 32]
 |  | > 5 |  | O=C(C[C@H](Cc1ccc(O)cc1)n1nncc1CNS(=O)(=O)c1ccc(-c2ccccn2)s1)NO [Compound 33]
 |  |  | + + | O=C(NO)[C@H](Cc1ccc(O)cc1)n1nncc1CNS(=O)(=O)c1ccc(-c2ccccc2)s1 [Compound 34]
 | < 0.5 | > 5 |  | COc1ccc(C[C@@H](C(=O)NO)n2cc(CNS(=O)(=O)c3ccc(-c4ccncc4)s3)nn2)cc1 [Compound 36]
 | < 0.5 | < 5 |  | COc1ccc(C[C@@H](C(=O)NO)n2cc(CNS(=O)(=O)c3ccc(-c4ccccn4)s3)nn2)cc1OC [Compound 41]
 | < 0.5 |  |  | COc1ccc(C[C@@H](C(=O)NO)n2cc(CN(C)S(=O)(=O)c3ccc(-c4ccccn4)s3)nn2)cc1 [Compound 46]
 | < 0.5 |  |  | COc1ccc(C[C@@H](C(=O)NO)n2cc([C@H](C)NS(=O)(=O)c3ccc(-c4ccccn4)s3)nn2)cc1 [Compound 47]
 | > 5 |  |  | COc1ccccc1C[C@@H](C(=O)NO)n1cc(CNS(=O)(=O)c2ccc(-c3ccccn3)s2)nn1 [Compound 50]
 | < 0.5 |  |  | COCCOc1ccc(C[C@@H](C(=O)NO)n2cc(CNS(=O)(=O)c3ccc(-c4ccccn4)s3)nn2)cc1 [Compound 51]
